Paper PMC7269032, “Chiral 4-O-acylterpineol as transdermal permeation enhancers: insights of the enhancement mechanisms of a transdermal enantioselective delivery system for flurbiprofen” (Drug Delivery, 2020)

How the values were obtained:
[1] = In vitro permeation experiment of FP drug-in-adhesive patches in two-chamber diffusion cells; assay type: in vitro ADME, rabbit; conditions: for ER (Q24h with enhancer/Q24h without enhancer) for R-FP / Tlag of R-FP / Js of R-FP: permeant R-FP; for ER (Q24h with enhancer/Q24h without enhancer) for R-FP / Tlag of R-FP / Js of R-FP / ER (Q24h with enhancer/Q24h without enhancer) for S-FP / Tlag of S-FP / Js of S-FP / ER (Q24h with enhancer/Q24h without enhancer) for SR-FP / Tlag of SR-FP / Js of SR-FP: patch 5% drug (w/w); for ER (Q24h with enhancer/Q24h without enhancer) for R-FP / ER (Q24h with enhancer/Q24h without enhancer) for S-FP / ER (Q24h with enhancer/Q24h without enhancer) for SR-FP: enhancer equimolar to 5% 4-TER; for Tlag of R-FP / Js of R-FP / Tlag of S-FP / Js of S-FP / Tlag of SR-FP / Js of SR-FP: enhancer equimolar to 5% 4-TER (control: no enhancer); for Js of R-FP / Js of S-FP / Js of SR-FP: mean ± SD, n = 4; for ER (Q24h with enhancer/Q24h without enhancer) for S-FP / Tlag of S-FP / Js of S-FP: permeant S-FP; for ER (Q24h with enhancer/Q24h without enhancer) for SR-FP / Tlag of SR-FP / Js of SR-FP: permeant SR-FP
Source text: Male, Japanese big-eared rabbits weighting 2.5–3.0 kg were purchased from the animal experimental center of North China University of Science and Technology. The experimental process was in accordance with the ‘Ethical Guide for Laboratory Animal Investigation’ and was approved by the Animal Experimental Center Committee of North China University of Science and Technology. All efforts were made to minimize animal suffering and to limit the number of animals used.
The hair of back skin was removed by clipper and electrical shaver carefully when the rabbits were anesthetized with ether. Full thickness of back skin was excised after the rabbit was sacrificed by injecting air into the ear veins, and the subcutaneous fat tissue was carefully removed using the surgical scissor and scalpel. The integrity of the skin was confirmed by microscopic observation method. The treated rabbit skin was cut into a size of 1.5 cm × 1.5 cm and stored at –80 °C until use. Before use, it needed to be immersed in physiological saline for 20 min to thaw.
Drug-in-adhesive patch (drug loading of 5% by adhesive) was prepared by using solvent evaporation method. An appropriate amount of FP was dissolved in a suitable amount of ethyl acetate, which was later added to the adhesive and mixed thoroughly with a mechanical stirrer. The resulting solution was coated onto release liner (Scotch Pak® 9744, 3M, USA) by using lab coating unit (6025, BLD Instruments Co. Ltd., Guangdong, China). The coated laminate was dried at 50 °C for 15 min. After the solvent had been removed, it was covered with backing laminate (Scotch Pak® 9732, 3M).
Modified two-chamber diffusion cells with an effective diffusion area of 0.95 cm^2 were employed in the in vitro permeation experiment. The cells were kept at 32 °C by the circulated water bath and stirred with magnetic bars at 400 rpm. The dermis side of the skin was attached to one-half of the side-by-side diffusion cells, the FP patch was pressed on the skin with the adhesive side facing the SC, and pH 7.4 PBS was used as the receptor medium. At predetermined time points (2, 4, 6, 8, 10, 12 and 24 h), the receptor solution of 2.0 mL was withdrawn and equal volume PBS was added to maintain a constant volume of receptor solution.
The cumulative amount of each drug permeating per unit area (Q) versus time was plotted. Q24h=(3.5Ci+2.0∑i=1n−1Ci−1)/A
Q was the cumulative skin permeation amount. Ci was the concentration in the receiver compartment at time i, A was the effective diffusion area of diffusion.
The steady-state flux (Js, µg/cm^2/h) was calculated from the slope of linear region of the plot. The lag-time was determined by extrapolating the linear portion of the curve to the abscissa. Js=dQr/Adt
Enhancement ratio (ER) was used to evaluate the activity of the enhancers, which is the ratio of Q24h with enhancer to Q24h without enhancer. ER=Q24h(with enhancer)/Q24h(without enhancer)

[2] = In vivo pharmacokinetic study, transdermal patch administration; parameters: species or system rabbit; conditions: rabbits, SR-FP patch with 5% enhancer or without (control); for V of R-FP: analyte R-; for V of S-FP: analyte S-
Description: Thirty-six male rabbits weighing 2.5 kg were divided into six groups, and the back skin was intact without erythema. For patch administration studies, patches without or with enhancers (120 mg/kg) were stuck to the shaved area of the rabbits. They were administered as follows: (1) control group: only the SR-FP; (2) enhancer group A: prepared SR-FP patch with 5% d-4-TER; (3) enhancer group B: prepared SR-FP patch with 5% d-4-T-dC18; (4) enhancer group C: prepared SR-FP patch with 5% l-4-T-dC18; (5) enhancer group D: prepared S-FP patch with 5% d-4-T-dC18; (6) enhancer group E: prepared R-FP patch with 5% d-4-T-dC18. In order to prevent the patches fallen off, gauze and medical tape were used to fix the patches. The blood from ear vein of rabbit was collected 0.5 mL at 0.5, 1, 2, 4, 6, 8, 12, 16, 20, 24, 26, 28, 30, 32, 36 and 48 h, and the patch was removed after 24 h, then the residual drug was wiped with physiological saline. The sample was processed by the same method as IV. All animal studies were carried out in accordance with the NIH Guidelines for the Care and Use of Laboratory Animals and were also approved by the Life Science Research Center of North China University of Science and Technology.
After being thawed and equilibrated to room temperature, an aliquot (100 μL) of plasma sample was spiked with […] (10 μL) of 40.0 μg/mL and 400 μL methanol. The samples were vortexed for 5 min and followed by centrifugation at 16,000 rpm for 10 min at 25 °C. After centrifugation, the supernatant was transferred to a clean tube and evaporated to dryness at 40 °C under a gentle stream of nitrogen. The dried samples were reconstituted with 100 μL mobile phase, vortexed and centrifuged before analysis.
Pharmacokinetic parameters were calculated using WinNonlin® software (Pharsight Corporation, San Diego, CA, USA) based on noncompartmental model, including the maximal plasma drug concentration (Cmax), the time to reach Cmax (Tmax) which were obtained from the observed data, the area under the time–concentration curve from time 0 to time t (AUC0–t) of distribution which was calculated using the linear trapezoidal rule, the mean residence time (MRT), the plasma clearance (Cl) and the apparent volume(V). Enhancement factor (Ef) was calculated from the following equation: Ef=AUC0−t(with enhancer)/AUC0−t(without enhancer)
The concentrations of drugs in the receptor medium or rabbit plasma were determined using a validated HPLC method. The HPLC system was equipped with a Shimadzu HPLC apparatus, including an LC-20AT pump, a SIL20A syringe, an SPD-20A detector, and a CTO-20A column oven. The propylparaben was used as an internal standard, and the flow rate of chromatographic analysis was set 1.0 mL/min. For in vitro analysis of SR-FP, thermo (USA) C18 column (150 mm × 4.6 mm, 5 μm particle) maintained at 40 °C was used to elute SR-FP, the mobile phase was used methanol and 1% aqueous glacial acetic acid (60:40, v/v) and the wavelength was set at 247 nm. The HPLC conditions of S-FP and R-FP were as follows: The column was CHIRALPAK®IA (4.6 mm × 250 mml, 5 μm particle diameter) of DAOCEL (Shanghai, China). The mobile phase consisted of acetonitrile and trifluoroacetic acid (0.05%, 50:50, v/v), the wavelength was set at 254 nm. For in vivo analysis of S-FP and R-FP, the mobile phase consisted of acetonitrile and trifluoroacetic acid (0.05%, 35:65, v/v), and other conditions were the same to in vitro analysis.
Absolute bioavailability (F) was calculated by the following equation: F=AUCpatch·Dosei.v./AUCi.v.·Dosepatch

SMILES | ER (Q24h with enhancer/Q24h without enhancer) for R-FP [1] | Tlag of R-FP [1] | Js of R-FP [1] | ER (Q24h with enhancer/Q24h without enhancer) for S-FP [1] | Tlag of S-FP [1] | Js of S-FP [1] | ER (Q24h with enhancer/Q24h without enhancer) for SR-FP [1] | Tlag of SR-FP [1] | Js of SR-FP [1] | V of R-FP [2] | V of S-FP [2] | cumulative transport of SR-FP at 24 h ([1]; 3% enhancer level (w/w)) | cumulative transport of SR-FP at 24 h ([1]; 5% enhancer level (w/w))
CCCCCCC(=O)OC1(C(C)C)CC=C(C)CC1 (stereo not drawn) [d-4-T-C7, d-4-methyl-1-(1-methylethyl)-3-cyclohexen-1-yl heptanoate] | 1.96 | 2.40 h | 4.40 ± 1.42 μg/cm^2/h | 1.69 | 2.91 h | 4.39 ± 0.49 μg/cm^2/h | 2.14 | 3.74 h | 14.46 ± 1.52 μg/cm^2/h |  |  |  | 
CCCCCCCCC=CCCCCCCCC(=O)OC1(C(C)C)CC=C(C)CC1 (stereo not drawn) [d-4-T-dC18, d-4-methyl-1-(1-methylethyl)-3-cyclohexen-1-yl octadec-9-enoate] | 4.43 | 3.95 h | 11.81 ± 1.23 μg/cm^2/h | 4.13 | 4.08 h | 10.99 ± 2.17 μg/cm^2/h | 2.77 | 1.85 h | 17.57 ± 4.13 μg/cm^2/h | 139.60 ± 34.29 L | 92.94 ± 28.69 L |  | 
CC1=CCC(O)(C(C)C)CC1 (stereo not drawn) [d-4-TER, d-4-terpineol, reference compound] | 2.74 | 3.58 h | 7.34 ± 2.51 μg/cm^2/h | 2.97 | 2.45 h | 7.60 ± 1.47 μg/cm^2/h | 2.16 | 3.60 h | 14.43 ± 3.62 μg/cm^2/h | 251.59 ± 56.91 L | 99.27 ± 18.81 L | 168.14 ± 19.95 μg/cm^2 | 266.01 ± 58.81 μg/cm^2
CCCCCCCCCCCCCC(=O)OC1(C(C)C)CC=C(C)CC1 (stereo not drawn) [l-4-T-C14, l-4-methyl-1-(1-methylethyl)-3-cyclohexen-1-yl tetradecanoate] | 2.92 | 3.51 h | 7.62 ± 1.49 μg/cm^2/h | 2.73 | 3.37 h | 6.80 ± 0.50 μg/cm^2/h | 1.92 | 2.45 h | 11.83 ± 6.27 μg/cm^2/h |  |  |  | 

Further lines, results first:

ER (Q24h with enhancer/Q24h without enhancer) for R-FP [1] | Tlag of R-FP [1] | Js of R-FP [1] | ER (Q24h with enhancer/Q24h without enhancer) for S-FP [1] | Tlag of S-FP [1] | Js of S-FP [1] | ER (Q24h with enhancer/Q24h without enhancer) for SR-FP [1] | Tlag of SR-FP [1] | Js of SR-FP [1] | V of R-FP [2] | V of S-FP [2] | cumulative transport of SR-FP at 24 h ([1]; 3% enhancer level (w/w)) | cumulative transport of SR-FP at 24 h ([1]; 5% enhancer level (w/w)) | SMILES
3.19 | 3.98 h | 8.16 ± 0.84 μg/cm^2/h | 3.53 | 2.04 h | 7.75 ± 1.68 μg/cm^2/h | 2.85 | 3.58 h | 18.79 ± 3.81 μg/cm^2/h |  |  |  |  | CCCCCCCCCCCCCC(=O)OC1(C(C)C)CC=C(C)CC1 (stereo not drawn) [d-4-T-C14, d-4-methyl-1-(1-methylethyl)-3-cyclohexen-1-yl tetradecanoate]
1.38 | 2.11 h | 3.19 ± 0.47 μg/cm^2/h | 1.10 | 4.18 h | 3.00 ± 0.69 μg/cm^2/h | 1.35 | 2.96 h | 6.58 ± 1.41 μg/cm^2/h |  |  |  |  | CCCCCCC(=O)OC1(C(C)C)CC=C(C)CC1 (stereo not drawn) [l-4-T-C7, l-4-methyl-1-(1-methylethyl)-3-cyclohexen-1-yl heptanoate]
2.64 | 3.82 h | 6.99 ± 1.12 μg/cm^2/h | 2.25 | 4.07 h | 6.02 ± 0.99 μg/cm^2/h | 1.81 | 3.13 h | 11.43 ± 2.06 μg/cm^2/h |  |  | 145.16 ± 13.64 μg/cm^2 | 222.09 ± 19.19 μg/cm^2 | CC1=CC[C@@](O)(C(C)C)CC1 [l-4-TER, l-4-terpineol, reference compound]
